{"source": "patent US20260294885A1", "about": "“TREATMENT OF INFLAMMATORY CONDITIONS COMPRISING IMU-856” (IMMUNIC AG, priority 2023, published 2026)", "key": {"[1]": {"test_system": "other members of the human SIRT protein family", "assay": "Selectivity over other members of the SIRT family", "format": "biochemical"}, "claudin-2": {"test_system": "claudin-2", "assay": "Tight junction protein claudin-2 in a TEER model", "format": "cell-based, human", "excerpt": "In one TEER model, tight junction (TJ)-related proteins were investigated, and a normalisation of TJ proteins (claudin (Cldn)-1 and claudin-2) was observed."}, "[2]": {"test_system": "patients with celiac disease", "assay": "Phase Ib safety in patients with celiac disease (Part C)", "format": "in vivo, human", "experimental": "(§1) In Part A, healthy subjects were randomised to single ascending doses of IMU-856 (10 mg to 160 mg) or placebo. In Part B healthy subjects were randomised to multiple once-daily doses of IMU-856 (40, 80, and 160 mg) or placebo for 14 days. Part C randomised patients with celiac disease who were on a gluten-free diet to multiple once-daily doses of IMU-856 (80 mg and 160 mg) or placebo for 28 days; a once-daily gluten challenge (6 g) was introduced on Day 14 and ended on Day 28. 71 healthy subjects were enrolled in Part A and B (N=19 placebo and N=52 IMU-856) and 43 patients with CelD in Part C (N=14 placebo; N=14 for 80 mg, and N=15 for 160 mg). In Parts A and B, treatment-emergent adverse events (TEAEs) occurred in 24 (73%) and 15 (79%) of subjects receiving any dose of IMU-856 compared to 6 (50%) and 5 (71%) with placebo, respectively. […] In Part C, the most common adverse events with any dose of IMU-856 by preferred term were headache (13 [45%]), nausea (9 [31%]), diarrhoea (8 [28%]), and abdominal distension (7 [24%]). […] In Part C, the mean change in villous height from baseline to Day 29 with 80 mg and 160 mg was −20.9±34.8 μm, and −22.5±51.1 μm, respectively, and −60.3±52.2 μm with placebo. […] Mean change in plasma citrulline increased with 80 mg and 160 mg from baseline to Day 14 (2.4±6.2 and 6.1±5.9 μmol/L, respectively) and from baseline to Day 29 (2.8±7.6 and 2.2±5.3 μmol/L, respectively), but not with placebo (−2.7±5.6 and −4.0±6.5 μmol/L). […] Mean increase in zinc levels from baseline to Day 29 with 80 mg and 160 mg were 0.3±1.4 and 0.9±2.1 μmol/L compared to a mean decrease in placebo (−0.9±2.1 μmol/L). Gluten-induced symptoms were also attenuated by IMU-856.\n(§2) FIG. 1 illustrates the flow chart of part C in celiac disease (CelD) designed as proof-of-concept study with a gluten challenge trial. Part C was planned to include a well-controlled celiac disease patient population: The patients were 100% seronegative, indicating absence of ongoing substantial gluten exposure and was performed at sites in Australia and New Zealand. Part C was designed to assess safety, tolerability and pharmacokinetics of IMU-856 and measured also histologic changes, blood biomarkers, nutrient uptake and disease-related symptoms."}, "[3]": {"assay": "Pharmacokinetics in celiac disease patients, Part C", "format": "in vivo, human", "settings": "for Cmax at 192 h / Tmax at 192 h / AUC(0-t) at 192 h: human, in vivo, Day 8, mean; for AUC(0-t) at 192 h: read-out: AUC0-t last", "experimental": "as §2"}, "plasma citrulline": {"test_system": "plasma citrulline", "assay": "Plasma citrulline, Part C", "format": "in vivo, human", "experimental": "as §1\nAlso, biomarker response upon treatment of CelD with IMU-856 was assessed. […] A wide inter-individual range of IL-2 response leads to large SD, especially in the placebo group. […]"}, "[4]": {"test_system": "patients with celiac disease", "assay": "Nutrient absorption (vitamin B12, zinc, ferritin), Part C", "format": "in vivo, human", "settings": "for increase in vitamin B12 levels: over the course of the trial; for mean increase in vitamin B12 levels / mean increase in zinc levels: baseline to Day 29", "experimental": "as §1, with “IMU-856. […]” for “IMU-856.”"}}, "note": "“Also recorded” adds a separate entry of the source. Where two headings read alike, the source gives them in different places.", "data": [{"smiles": "Cn1c(COc2cc(C(F)(F)F)ccn2)nnc1[C@H]1CC[C@H](c2cnn([C@H]3CC[C@H](N4CC5(CCO5)C4)CC3)c2)CC1", "note": "[IMU-856, 6-(trans-4-(4-(trans-4-(4-methyl-5-(((4-(trifluoromethyl)pyridin-2-yl)oxy)methyl)-4H-1,2,4-triazol-3-yl)cyclohexyl)-1H-pyrazol-1-yl)cyclohexyl)-1-oxa-6-azaspiro[3.3]heptane]", "values": [{"measurement": "selectivity for SIRT6 over other SIRT family members", "setting": "[1]", "result": "highly selective for SIRT6"}, {"measurement": "claudin-2", "setting": "claudin-2", "result": "normalisation"}, {"measurement": "serious adverse events", "setting": "[2]", "result": 1}, {"measurement": "abdominal distension (number)", "setting": "[2]; any dose", "result": 7}, {"measurement": "abdominal distension (percentage)", "setting": "[2]; any dose", "result": 24, "unit": "%"}, {"measurement": "diarrhoea (number)", "setting": "[2]; any dose", "result": 8}, {"measurement": "diarrhoea (percentage)", "setting": "[2]; any dose", "result": 28, "unit": "%"}, {"measurement": "headache (number)", "setting": "[2]; any dose", "result": 13}, {"measurement": "headache (percentage)", "setting": "[2]; any dose", "result": 45, "unit": "%"}, {"measurement": "nausea (number)", "setting": "[2]; any dose", "result": 9}, {"measurement": "nausea (percentage)", "setting": "[2]; any dose", "result": 31, "unit": "%"}, {"measurement": "achievement of steady state", "setting": "[3]; Part C", "result": "fast achievement of steady state"}, {"measurement": "dose linearity of plasma Cmax and AUC", "setting": "[3]; Part C", "result": "linear pharmacokinetics with dose-proportional increase"}, {"measurement": "mean trough levels / exposure over dosing period", "setting": "[3]; Part C", "result": "constant exposure within the whole dosing period"}, {"measurement": "Cmax at 192 h", "setting": "[3]; IMU-856 80 mg", "result": 354, "unit": "ng/mL"}, {"measurement": "Tmax at 192 h", "setting": "[3]; IMU-856 80 mg", "result": 1.9, "unit": "h"}, {"measurement": "AUC(0-t) at 192 h", "setting": "[3]; IMU-856 80 mg", "result": 1570, "unit": "ng·h/mL"}, {"measurement": "Cmax at 192 h", "setting": "[3]; IMU-856 160 mg", "result": 766, "unit": "ng/mL"}, {"measurement": "Tmax at 192 h", "setting": "[3]; IMU-856 160 mg", "result": 1.5, "unit": "h"}, {"measurement": "AUC(0-t) at 192 h", "setting": "[3]; IMU-856 160 mg", "result": 3610, "unit": "ng·h/mL"}, {"measurement": "mean change in plasma citrulline", "setting": "plasma citrulline; 80 mg, baseline to Day 14", "result": "2.4 ± 6.2", "unit": "µmol/L"}, {"measurement": "mean change in plasma citrulline", "setting": "plasma citrulline; 160 mg, baseline to Day 29", "result": "2.2 ± 5.3", "unit": "µmol/L"}, {"measurement": "citrulline levels", "setting": "plasma citrulline; in words", "result": "increased citrulline levels dose proportionally; also recorded: increased in both active treatment arms"}, {"measurement": "increase in vitamin B12 levels", "setting": "[4]; 80 mg (N=11)", "result": 45.8, "unit": "pmol/L"}, {"measurement": "mean increase in vitamin B12 levels", "setting": "[4]; 80 mg", "result": "45.8 ± 94.4", "unit": "pmol/L"}, {"measurement": "mean increase in zinc levels", "setting": "[4]; 80 mg", "result": "0.3 ± 1.4", "unit": "µmol/L"}, {"measurement": "increase in vitamin B12 levels", "setting": "[4]; 160 mg (N=13)", "result": 74.2, "unit": "pmol/L"}, {"measurement": "mean increase in vitamin B12 levels", "setting": "[4]; 160 mg", "result": "74.2 ± 99.9", "unit": "pmol/L"}, {"measurement": "mean increase in zinc levels", "setting": "[4]; 160 mg", "result": "0.9 ± 2.1", "unit": "µmol/L"}, {"measurement": "gluten-induced iron malabsorption (ferritin levels)", "setting": "[4]; Baseline to Day 29", "result": "ameliorates the gluten-induced iron malabsorption; also recorded: decreased to a lesser extent"}, {"measurement": "nutrient absorption (vitamin B12)", "setting": "[4]; in words", "result": "enhances nutrient absorption in a dose-dependent manner"}, {"measurement": "nutrient absorption (zinc)", "setting": "[4]; in words", "result": "enhances nutrient absorption in a dose-dependent manner; also recorded: A similar responses to treatment was observed for zinc"}]}]}
